What all share (assay): two-electrode voltage clamp, Xenopus oocytes, -70 mV
Common to all, as to format: cell-based

One test deals with T1, GluN1^ΔM4+M4^N1/GluN2D (Rattus norvegicus; Mus musculus, UniProt P35439+Q03391).
T1 construct: gene Grin1; M4-truncated GluN1 plus separately expressed M4 fragment carrying GluN1 signal peptide, with full-length GluN2D; Xenopus oocytes
To be noted: saturating glutamate and glycine, PS pre-applied 45 s.

In another test the target is T2, GluN1/GluN2A (Rattus norvegicus; Mus musculus, UniProt P35436+P35439).
T2 construct: gene Grin1; full-length wild-type subunits in pNKS2, cRNA in Xenopus laevis oocytes; heterotetramer (rat GluN1 with mouse GluN2A)
T2 sequence (P35436 23-1464, other chains not shown): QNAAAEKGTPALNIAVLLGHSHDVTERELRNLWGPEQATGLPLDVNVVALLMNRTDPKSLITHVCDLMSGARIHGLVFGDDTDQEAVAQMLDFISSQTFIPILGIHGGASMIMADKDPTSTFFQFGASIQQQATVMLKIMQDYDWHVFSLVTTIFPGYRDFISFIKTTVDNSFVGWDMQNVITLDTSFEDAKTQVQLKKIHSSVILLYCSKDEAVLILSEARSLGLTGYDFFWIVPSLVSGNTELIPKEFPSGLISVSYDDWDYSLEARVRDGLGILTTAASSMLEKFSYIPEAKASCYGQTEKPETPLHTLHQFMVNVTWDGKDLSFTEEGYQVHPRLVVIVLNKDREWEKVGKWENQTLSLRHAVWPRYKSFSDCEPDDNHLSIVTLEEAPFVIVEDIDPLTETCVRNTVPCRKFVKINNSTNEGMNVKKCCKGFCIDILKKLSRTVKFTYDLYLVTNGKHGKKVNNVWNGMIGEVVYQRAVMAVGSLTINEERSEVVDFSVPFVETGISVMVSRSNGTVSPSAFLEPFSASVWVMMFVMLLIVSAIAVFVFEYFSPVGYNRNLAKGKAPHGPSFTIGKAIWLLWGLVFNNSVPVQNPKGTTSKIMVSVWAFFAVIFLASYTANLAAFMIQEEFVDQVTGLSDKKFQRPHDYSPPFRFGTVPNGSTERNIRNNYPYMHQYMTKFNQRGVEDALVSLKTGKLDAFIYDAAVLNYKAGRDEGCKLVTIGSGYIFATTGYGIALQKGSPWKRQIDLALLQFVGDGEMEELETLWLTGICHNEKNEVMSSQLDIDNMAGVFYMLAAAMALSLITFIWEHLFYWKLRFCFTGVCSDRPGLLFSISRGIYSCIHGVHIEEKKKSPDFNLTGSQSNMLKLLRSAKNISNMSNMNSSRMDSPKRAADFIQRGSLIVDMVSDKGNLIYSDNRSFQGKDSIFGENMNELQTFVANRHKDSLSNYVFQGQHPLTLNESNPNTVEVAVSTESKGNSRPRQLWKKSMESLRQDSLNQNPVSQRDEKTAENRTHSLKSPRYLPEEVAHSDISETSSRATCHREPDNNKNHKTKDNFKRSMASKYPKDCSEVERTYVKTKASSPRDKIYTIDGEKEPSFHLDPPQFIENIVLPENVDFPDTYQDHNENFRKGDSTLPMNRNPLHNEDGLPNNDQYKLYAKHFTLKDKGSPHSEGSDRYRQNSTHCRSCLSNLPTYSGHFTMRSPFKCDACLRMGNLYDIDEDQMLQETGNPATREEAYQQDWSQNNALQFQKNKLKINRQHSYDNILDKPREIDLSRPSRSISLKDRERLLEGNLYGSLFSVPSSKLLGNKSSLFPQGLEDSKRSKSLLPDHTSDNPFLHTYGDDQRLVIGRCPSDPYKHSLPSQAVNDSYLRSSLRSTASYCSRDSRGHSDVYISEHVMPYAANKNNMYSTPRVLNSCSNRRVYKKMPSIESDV

The next test addresses T3, GluN1/GluN2A^ΔM4+M4^N2A (Rattus norvegicus; Mus musculus, UniProt P35436+P35439).
T3 construct: gene Grin1; full-length GluN1 with M4-truncated GluN2A plus separately expressed GluN2A M4 fragment; Xenopus oocytes
The conditions noted are these: saturating glutamate and glycine, PS pre-applied 45 s.

In the next test the target is T4, GluN1^ΔM4+M4^N1/GluN2A (Rattus norvegicus; Mus musculus, UniProt P35436+P35439).
T4 construct: gene Grin1; M4-truncated GluN1 plus separately expressed M4 fragment carrying GluN1 signal peptide, with full-length GluN2A; Xenopus oocytes

Structures can show the parent of a compound that is named as a salt.

T3 sequence (P35436 23-803, stated change not applied, other chains not shown): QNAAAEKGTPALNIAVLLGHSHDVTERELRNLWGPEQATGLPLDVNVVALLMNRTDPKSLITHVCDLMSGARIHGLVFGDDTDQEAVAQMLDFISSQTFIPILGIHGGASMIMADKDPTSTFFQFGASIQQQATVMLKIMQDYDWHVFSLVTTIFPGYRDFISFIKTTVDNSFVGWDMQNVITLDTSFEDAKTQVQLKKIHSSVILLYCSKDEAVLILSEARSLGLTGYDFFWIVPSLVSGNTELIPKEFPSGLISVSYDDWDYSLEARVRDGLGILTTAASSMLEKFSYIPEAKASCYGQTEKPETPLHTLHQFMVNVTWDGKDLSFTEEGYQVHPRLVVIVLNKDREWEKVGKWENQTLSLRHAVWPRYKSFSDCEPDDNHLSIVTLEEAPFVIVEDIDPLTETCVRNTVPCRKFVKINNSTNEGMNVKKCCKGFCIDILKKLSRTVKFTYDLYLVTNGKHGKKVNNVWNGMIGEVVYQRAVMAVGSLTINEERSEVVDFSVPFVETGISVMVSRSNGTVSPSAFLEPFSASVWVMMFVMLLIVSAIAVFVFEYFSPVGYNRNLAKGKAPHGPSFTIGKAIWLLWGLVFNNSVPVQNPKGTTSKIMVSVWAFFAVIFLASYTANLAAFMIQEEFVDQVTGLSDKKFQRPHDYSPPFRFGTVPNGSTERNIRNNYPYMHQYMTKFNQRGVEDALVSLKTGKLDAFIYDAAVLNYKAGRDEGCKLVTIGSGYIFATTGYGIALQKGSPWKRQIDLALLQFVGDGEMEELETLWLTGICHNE
T3 sequence (P35436 804-1464, stated change not applied, other chains not shown): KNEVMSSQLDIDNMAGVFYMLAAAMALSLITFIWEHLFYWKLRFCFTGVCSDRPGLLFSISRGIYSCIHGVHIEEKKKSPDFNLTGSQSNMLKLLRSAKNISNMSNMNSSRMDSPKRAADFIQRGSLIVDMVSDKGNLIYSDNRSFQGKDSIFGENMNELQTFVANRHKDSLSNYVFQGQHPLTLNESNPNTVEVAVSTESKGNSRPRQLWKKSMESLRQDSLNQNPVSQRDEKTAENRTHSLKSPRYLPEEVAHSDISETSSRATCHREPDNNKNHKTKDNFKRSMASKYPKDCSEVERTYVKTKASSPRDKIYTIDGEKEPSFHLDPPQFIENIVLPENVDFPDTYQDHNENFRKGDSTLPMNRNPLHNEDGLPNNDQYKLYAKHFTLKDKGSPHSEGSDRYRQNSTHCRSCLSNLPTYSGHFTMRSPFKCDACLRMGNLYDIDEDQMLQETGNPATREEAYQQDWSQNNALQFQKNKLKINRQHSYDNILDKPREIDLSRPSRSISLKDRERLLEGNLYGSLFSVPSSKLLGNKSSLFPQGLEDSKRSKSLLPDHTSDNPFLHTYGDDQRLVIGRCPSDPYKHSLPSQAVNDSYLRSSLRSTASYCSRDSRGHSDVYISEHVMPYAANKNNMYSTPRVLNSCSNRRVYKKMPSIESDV

Take `CC(=O)[C@H]1CC[C@H]2[C@@H]3CC=C4C[C@@H](OS(=O)(=O)O)CC[C@]4(C)[C@H]3CC[C@]12C` [pregnenolone sulfate, 20-oxo-5-pregnen-3β-yl sulfate]: the “Imax potentiation (fold)” value at GluN1^ΔM4+M4^N1/GluN2D stood at 1.45 ± 0.19 fold. Besides, the figures for the EC50 at GluN1/GluN2A and on GluN1^ΔM4+M4^N1/GluN2A were 12.4 ± 1.3 µM and 15 ± 1.1 µM, respectively. Also, on GluN1/GluN2A^ΔM4+M4^N2A, the “Imax potentiation at 100 μM (fold)” value was ~ 1.1 fold.

These data come from PMC8517087, “Analysis of M4 Transmembrane Segments in NMDA Receptor Function: A Negative Allosteric Modulatory Site at the GluN1 M4 is Determining the Efficiency of Neurosteroid Modulation” (Frontiers in Pharmacology, 2021).
